Test results from patent US20160102073A1, “2-HYDROXYMETHYL-SUBSTITUTED OREXIN RECEPTOR ANTAGONISTS” (MERCK SHARP & DOHME CORP., priority 2013, published 2016).

Experiments:
[1] = biological target: T1, human orexin-1 receptor (hOX1R) (Homo sapiens, UniProt O43613); test: FLIPR Ca2+ Flux Assay, CHO cells expressing hOX1R; type: cell-based; conditions: agonist 70 pM Ala-6,12 orexin-A
T1 construct: expressed in transfected cells; host or cells: Chinese hamster ovary (CHO) cells, grown under G418 selection
T1 sequence (O43613 1-425): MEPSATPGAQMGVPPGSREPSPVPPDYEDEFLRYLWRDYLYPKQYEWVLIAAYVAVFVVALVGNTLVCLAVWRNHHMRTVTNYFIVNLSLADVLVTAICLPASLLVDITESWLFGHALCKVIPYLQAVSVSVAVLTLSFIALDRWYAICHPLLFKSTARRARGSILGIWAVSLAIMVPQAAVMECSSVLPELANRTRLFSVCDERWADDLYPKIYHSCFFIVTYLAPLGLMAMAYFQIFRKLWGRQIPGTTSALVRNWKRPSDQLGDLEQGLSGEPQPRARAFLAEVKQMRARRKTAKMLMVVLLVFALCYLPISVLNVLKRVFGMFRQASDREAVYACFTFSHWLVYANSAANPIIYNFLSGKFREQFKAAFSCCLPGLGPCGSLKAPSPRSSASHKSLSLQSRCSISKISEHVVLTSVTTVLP
Procedure: (§1) Chinese hamster ovary (CHO) cells expressing the human orexin-1 receptor (hOX1R) or the human orexin-2 receptor (hOX2R) were grown in Iscove's modified DMEM containing 2 mM L-glutamine, […], 1% hypoxanthine-thymidine supplement, 100 U/ml penicillin, 100 μg/ml streptomycin and 10% heat-inactivated fetal calf serum (FCS). The cells were seeded at 20,000 cells/well into Becton-Dickinson black 384-well clear bottom sterile plates coated with poly-D-lysine. All reagents were from GIBCO-Invitrogen Corp. The seeded plates were incubated overnight at 37° C. and 5% CO2. Ala-6,12 human orexin-A, used as the agonist, was prepared as a 1 mM stock solution in 1% bovine serum albumin (BSA) and diluted in assay buffer (HBSS containing 20 mM HEPES, 0.1% BSA and 2.5 mM probenecid, pH7.4) for use in the assay at a final concentration of 70 pM. Test compounds were prepared as 10 mM stock solution in DMSO, then diluted in 384-well plates, first in DMSO, then assay buffer.
On the day of the assay, cells were washed 3× with 100 μl assay buffer and then incubated for 60 minutes (37° C., 5% CO2) in 60 μl assay buffer containing 1 μM Fluo-4AM ester, 0.02% pluronic acid, and 1% BSA. The dye loading solution was then aspirated and cells were washed 3× with 100 μl assay buffer. 30 μl of that same buffer was left in each well. Within the Fluorescent Imaging Plate Reader (FLIPR, Molecular Devices), test compounds were added to the plate in a volume of 25 μl, incubated for 5 minutes, and then 25 μl of agonist was added. Fluorescence was measured for each well at 1 second intervals for 5 minutes, and the height of each fluorescence peak was compared to the height of the fluorescence peak induced by 70 pM of Ala-6,12 orexin-A with buffer in place of test compound.

[2] = biological target: T2, human orexin-2 receptor (hOX2R) (Homo sapiens, UniProt O43614); test: FLIPR Ca2+ Flux Assay, CHO cells expressing hOX2R; type: cell-based; conditions: agonist 70 pM Ala-6,12 orexin-A
T2 construct: expressed in transfected cells; host or cells: Chinese hamster ovary (CHO) cells, grown under G418 selection
T2 sequence (O43614 1-444): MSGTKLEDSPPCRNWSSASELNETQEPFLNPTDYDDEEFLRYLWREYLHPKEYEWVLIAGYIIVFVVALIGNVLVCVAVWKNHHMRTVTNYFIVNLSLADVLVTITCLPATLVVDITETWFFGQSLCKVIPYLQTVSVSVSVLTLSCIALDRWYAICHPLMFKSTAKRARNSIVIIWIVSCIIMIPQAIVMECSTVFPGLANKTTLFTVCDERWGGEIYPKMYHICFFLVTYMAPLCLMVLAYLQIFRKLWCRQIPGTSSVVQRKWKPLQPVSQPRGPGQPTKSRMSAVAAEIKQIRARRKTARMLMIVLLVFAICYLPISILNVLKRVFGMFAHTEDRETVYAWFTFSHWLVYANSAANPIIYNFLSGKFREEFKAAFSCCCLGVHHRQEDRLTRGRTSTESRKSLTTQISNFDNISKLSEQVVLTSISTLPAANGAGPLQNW
Procedure: The utility of the compounds in accordance with the present invention as orexin receptor OX1R and/or OX2R antagonists may be readily determined without undue experimentation by methodology well known in the art, including the “FLIPR Ca^2+ Flux Assay” (Okumura et al., Biochem. Biophys. Res. Comm. 280:976-981, 2001). In a typical experiment the OX1 and OX2 receptor antagonistic activity of the compounds of the present invention was determined in accordance with the following experimental method. For intracellular calcium measurements, Chinese hamster ovary (CHO) cells expressing the rat orexin-1 receptor or the human orexin-2 receptor, are grown in Iscove's modified DMEM containing 2 mM L-glutamine, […], 1% hypoxanthine-thymidine supplement, 100 U/ml penicillin, 100 μg/ml streptomycin and 10% heat-inactivated fetal calf serum (FCS). The cells are seeded at 20,000 cells/well into Becton-Dickinson black 384-well clear bottom sterile plates coated with poly-D-lysine. All reagents were from GIBCO-Invitrogen Corp. The seeded plates are incubated overnight at 37° C. and 5% CO2. Ala-6,12 human orexin-A as the agonist is prepared as a 1 mM stock solution in 1% bovine serum albumin (BSA) and diluted in assay buffer (HBSS containing 20 mM HEPES, 0.1% BSA and 2.5 mM probenecid, pH7.4) for use in the assay at a final concentration of 70 pM. Test compounds are prepared as 10 mM stock solution in DMSO, then diluted in 384-well plates, first in DMSO, then assay buffer. On the day of the assay, cells are washed 3 times with 100 μl assay buffer and then incubated for 60 min (37° C., 5% CO2) in 60 μl assay buffer containing 1 μM Fluo-4AM ester, 0.02% pluronic acid, and 1% BSA. The dye loading solution is then aspirated and cells are washed 3 times with 100 μl assay buffer. 30 μl of that same buffer is left in each well. Within the Fluorescent Imaging Plate Reader (FLIPR, Molecular Devices), test compounds are added to the plate in a volume of 25 μl, incubated for 5 min and finally 25 μl of agonist is added. Fluorescence is measured for each well at 1 second intervals for 5 minutes and the height of each fluorescence peak is compared to the height of the fluorescence peak induced by 70 pM Ala-6,12 orexin-A with buffer in place of antagonist. For each antagonist, IC50 value (the concentration of compound needed to inhibit 50% of the agonist response) is determined. Alternatively, compound potency can be assessed by a radioligand binding assay (described in Bergman et. al. Bioorg. Med. Chem. Lett. 2008, 18, 1425-1430) in which the inhibition constant (Ki) is determined in membranes prepared from CHO cells expressing either the OX1 or OX2 receptor. The intrinsic orexin receptor antagonist activity of a compound which may be used in the present invention may be determined by these assays.
as §1, with “buffer. […]” for “buffer.”

Structure (SMILES)	IC50 [1]	IC50 [2]
COc1ccnc(O[C@@H]2CC[C@@H](C)N(C(=O)c3ccccc3-n3nccn3)C2)c1C(C)(C)O (single isomer, unassigned) [Example 28]	93 nM	80 nM
C[C@@H]1CC[C@@H](Oc2ncccc2C(C)(C)O)CN1C(=O)c1ccccc1-n1nccn1 [Example 1, 2-(2-{[(3R,6R)-6-Methyl-1-{[2-(2H-1,2,3-triazol-2-yl)phenyl]carbonyl}piperidin-3-yl]oxy}pyridin-3-yl)propan-2-ol]	44.5 nM	30 nM
C[C@@H]1CC[C@@H](Oc2ncccc2C(C)(C)O)CN1C(=O)c1cc(CF)ccc1-n1nccn1 [Example 2, 2-(2-{[(3R,6R)-1-{[5-(Fluoromethyl)-2-(2H-1,2,3-triazol-2-yl)phenyl]carbonyl}-6-methylpiperidin-3-yl]oxy}pyridin-3-yl)propan-2-ol]	30 nM	11 nM
C[C@@H]1CC[C@@H](Oc2ncccc2C(C)(C)O)CN1C(=O)c1cccc(F)c1-n1nccn1 [Example 3, 2-(2-{[(3R,6R)-1-{[3-fluoro-2-(2H-1,2,3-triazol-2-yl)phenyl]carbonyl}-6-methylpiperidin-3-yl]oxy}pyridin-3-yl)propan-2-ol]	189 nM	35 nM
C[C@@H]1CC[C@@H](Oc2ncccc2C(C)(C)O)CN1C(=O)c1ccc(F)cc1-n1nccn1 [Example 4, 2-(2-{[(3R,6R)-1-{[4-fluoro-2-(2H-1,2,3-triazol-2-yl)phenyl]carbonyl}-6-methylpiperidin-3-yl]oxy}pyridin-3-yl)propan-2-ol]	425 nM	68 nM
C[C@@H]1CC[C@@H](Oc2ncccc2C(C)(C)O)CN1C(=O)c1cc(F)ccc1-n1nccn1 [Example 5, 2-(2-{[(3R,6R)-1-{[5-fluoro-2-(2H-1,2,3-triazol-2-yl)phenyl]carbonyl}-6-methylpiperidin-3-yl]oxy}pyridin-3-yl)propan-2-ol]	121 nM	34 nM
C[C@@H]1CC[C@@H](Oc2ncccc2C(C)(C)O)CN1C(=O)c1cc(Cl)ccc1-n1nccn1 [Example 6, 2-(2-{[(3R,6R)-1-{[5-chloro-2-(2H-1,2,3-triazol-2-yl)phenyl]carbonyl}-6-methylpiperidin-3-yl]oxy}pyridin-3-yl)propan-2-ol]	141 nM	66 nM
C[C@@H]1CC[C@@H](Oc2ncccc2C(C)(C)O)CN1C(=O)c1cc(C#N)ccc1-n1nccn1 [Example 7, 3-{[(2R,5R)-5-{[3-(1-hydroxy-1-methylethyl)pyridin-2-yl]oxy}-2-methylpiperidin-1-yl]carbonyl}-4-(2H-1,2,3-triazol-2-yl)benzonitrile]	418 nM	88 nM
C[C@@H]1CC[C@@H](Oc2ncccc2C(C)(C)O)CN1C(=O)c1ccccc1-c1ccccc1 [Example 8, 2-(2-{[(3R,6R)-1-(biphenyl-2-ylcarbonyl)-6-methylpiperidin-3-yl]oxy}pyridin-3-yl)propan-2-ol]	124 nM	70 nM
C[C@@H]1CC[C@@H](Oc2ncccc2C(C)(C)O)CN1C(=O)c1ccccc1C1CCC1 [Example 9, 2-[2-({(3R,6R)-1-[(2-cyclobutylphenyl)carbonyl]-6-methylpiperidin-3-yl}oxy)pyridin-3-yl]propan-2-ol]	89 nM	54 nM
COc1ccc(C(=O)N2C[C@H](Oc3ncccc3C(C)(C)O)CC[C@H]2C)c(-c2ccccc2)n1 [Example 10, 2-[2-({(3R,6R)-1-[(6-methoxy-2-phenylpyridin-3-yl)carbonyl]-6-methylpiperidin-3-yl}oxy)pyridin-3-yl]propan-2-ol]	435 nM	157 nM
C[C@@H]1CC[C@@H](Oc2ncccc2C(C)(C)O)CN1C(=O)c1sccc1-n1nccn1 [Example 11, 2-(2-{[(3R,6R)-6-methyl-1-{[3-(2H-1,2,3-triazol-2-yl)thiophen-2-yl]carbonyl}piperidin-3-yl]oxy}pyridin-3-yl)propan-2-ol]	148 nM	41 nM
C[C@@H]1CC[C@@H](Oc2ncccc2C(C)(C)O)CN1C(=O)c1ccccc1N1CCCC1 [Example 12, 2-[2-({(3R,6R)-6-methyl-1-[(2-pyrrolidin-1-ylphenyl)carbonyl]piperidin-3-yl}oxy)pyridin-3-yl]propan-2-ol]	265 nM	104 nM
C[C@@H]1CC[C@@H](Oc2ncccc2C(C)(C)O)CN1C(=O)c1ccccc1C1CC1 [Example 13, 2-[2-({(3R,6R)-1-[(2-cyclopropylphenyl)carbonyl]-6-methylpiperidin-3-yl}oxy)pyridin-3-yl]propan-2-ol]	94 nM	34 nM
C[C@@H]1CC[C@@H](Oc2ncccc2C(C)(C)O)CN1C(=O)c1ccc(F)cc1C1CC1 [Example 14, 2-[2-({(3R,6R)-1-[(2-cyclopropyl-4-fluorophenyl)carbonyl]-6-methylpiperidin-3-yl}oxy)pyridin-3-yl]propan-2-ol]	475 nM	49 nM
